Measured values from EPA's ToxValDB 9.5 (doi:10.2903/j.efsa.2016.4609).
Values after ≈ are worked out from the molar mass of the structure shown.

Assays:
[1] = system: Rattus norvegicus; settings: for NOAEL: gavage
[2] = system: Oryctolagus sp.; settings: developmental; development
[3] = system: Apis mellifera; settings: acute, duration: 48 hours, mortality
[4] = system: Ictalurus punctatus; settings: acute; duration: 96 hours; mortality
[5] = system: Tagia sp.; settings: chronic/long-term; mortality
[6] = system: Colinus virginianus
[7] = system: Pimephales promelas; settings: chronic/long-term; duration: 56 days; mortality
[8] = system: Neomysis kadiakensis; settings: chronic/long-term; duration: 28 days; reproduction
[9] = chronic, duration: 2 years, histopathology: neoplastic

SMILES	LOAEL [1, 9]	LOAEL [2]	LD50 ([3]; dermal)	LD50 ([3]; oral, unspecified)	LC50 [4]	NOEC [5]	LD50 ([1]; acute, oral, mortality)	LOAEL ([1]; reproduction developmental, reproduction)	LD50 ([6]; acute, oral, mortality)	NOEL ([6]; reproduction developmental)	NOEC [7]	NOEC [8]	NOAEL ([1]; short-term, duration: 28 days, oral, Wistar)	NOAEL ([1]; subchronic, duration: 90 days, oral, hematological)
NC(=O)NC(=O)Nc1cc(Cl)c(O)c(Cl)c1 [N-(3,5-Dichloro-4-hydroxyphenyl)-2-imidodicarbonic diamide]	6.1 mg/kg-day	20 mg/kg-day												
CC(C)NC(=O)N1CC(=O)N(c2cc(Cl)cc(Cl)c2)C1=O	6.1 mg/kg-day	20 mg/kg-day	> 100 µg/piece	> 100 µg/piece	3.1 µg/mL (≈ 9.39 µM)	1000 mg/kg	> 2000 mg/kg-day	26.9 mg/kg-day	3780 mg/kg-day	22.3 mg/kg-day	0.0731 mg/L	0.0075 mg/L		
NC(CCC(=O)Nc1cc(Cl)cc(Cl)c1)C(=O)O (stereo unspecified) [N-(3,5-Dichlorophenyl)glutamine]													7.5 mg/kg-day	1 mg/kg-day
